Reference: patent US5047418A, “Method of stimulating histamine H3 -receptors” (Smith Kline & French Laboratories Limited, priority 1989, dated 1991)
pEC50: −log10 of the molar value.

Legend:
histamine H3 -receptor = biological target: T1, histamine H3 -receptor (Cavia porcellus, UniProt Q9JI35); assay: Inhibition of electrically evoked twitch responses of guinea-pig ileum (histamine H3-agonist activity); settings: read-out: EC50 (concentration of compound which caused 50% inhibition of the twitch response)
T1 construct: twitch responses of the guinea-pig ileum; from tissue; host or cells: guinea-pig ileum (isolated, electrically stimulated, organ bath)
Experimental: Inhibition of the electrically evoked twitch responses of the guinea-pig ileum by histamine H3 -receptor agonists was studied by addition of graded concentrations of the compound (in volumes of 25 μl or 79 μl) to the organ bath in a sequential manner. Each concentration of agonist was washed out of the bath when the response had reached equilibrium. A four minute period was allowed between each addition of the compound.

histamine H1 -receptor [1] = biological target: T2, histamine H1 -receptor (Cavia porcellus, UniProt P31389); assay: Histamine H1-antagonist activity on guinea-pig ileum
Experimental: (§1) The activity of the compounds of the formula (1) at the histamine H1 - or H2 -receptor was assessed substantially as described by Parsons et al., Agents and Actions, 1976, 7(1), 31.
On the guinea-pig ileum the compound of the formula (1) wherein X is CH2 had no histamine H1 -antagonist activity up to 10^-5 M.

histamine H1 -receptor [2] = biological target: T2, histamine H1 -receptor; assay: Histamine H1-agonist activity on guinea-pig ileum
Experimental: as §1

histamine H2 -receptor [3] = biological target: T3, histamine H2 -receptor (Cavia porcellus, UniProt P47747); assay: Histamine H2-agonist activity on guinea-pig atrium
T3 construct: On the guinea-pig atrium; from tissue; host or cells: guinea-pig atrium (isolated tissue)
Experimental: as §1

histamine H2 -receptor [4] = biological target: T3, histamine H2 -receptor; assay: Histamine H2-antagonist activity on guinea-pig atrium; settings: read-out: pA2 (histamine H2 -antagonist activity) (converted)

T2 sequence (P31389 whole entry): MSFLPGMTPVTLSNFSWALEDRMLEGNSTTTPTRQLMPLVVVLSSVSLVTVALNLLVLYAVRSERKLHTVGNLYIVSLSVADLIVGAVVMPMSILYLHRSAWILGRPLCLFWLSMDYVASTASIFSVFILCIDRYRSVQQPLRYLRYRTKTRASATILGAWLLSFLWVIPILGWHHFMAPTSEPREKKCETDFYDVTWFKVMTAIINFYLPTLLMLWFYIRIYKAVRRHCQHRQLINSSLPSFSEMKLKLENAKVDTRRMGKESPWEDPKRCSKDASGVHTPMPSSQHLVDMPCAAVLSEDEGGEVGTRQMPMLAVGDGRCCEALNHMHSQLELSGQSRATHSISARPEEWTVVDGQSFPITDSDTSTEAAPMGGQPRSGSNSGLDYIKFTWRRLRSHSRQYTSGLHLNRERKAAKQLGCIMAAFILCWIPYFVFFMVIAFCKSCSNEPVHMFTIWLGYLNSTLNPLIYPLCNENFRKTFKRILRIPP
T3 sequence (P47747 whole entry): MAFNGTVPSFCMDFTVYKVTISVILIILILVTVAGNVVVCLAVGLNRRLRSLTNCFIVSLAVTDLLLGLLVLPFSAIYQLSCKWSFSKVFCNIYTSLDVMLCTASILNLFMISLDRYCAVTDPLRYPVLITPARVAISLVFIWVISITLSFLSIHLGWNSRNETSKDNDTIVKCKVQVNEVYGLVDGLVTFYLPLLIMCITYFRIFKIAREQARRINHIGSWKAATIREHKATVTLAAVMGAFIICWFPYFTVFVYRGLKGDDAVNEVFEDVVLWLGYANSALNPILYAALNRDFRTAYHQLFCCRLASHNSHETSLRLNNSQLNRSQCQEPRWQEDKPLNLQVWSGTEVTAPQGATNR
T1 sequence (Q9JI35 whole entry): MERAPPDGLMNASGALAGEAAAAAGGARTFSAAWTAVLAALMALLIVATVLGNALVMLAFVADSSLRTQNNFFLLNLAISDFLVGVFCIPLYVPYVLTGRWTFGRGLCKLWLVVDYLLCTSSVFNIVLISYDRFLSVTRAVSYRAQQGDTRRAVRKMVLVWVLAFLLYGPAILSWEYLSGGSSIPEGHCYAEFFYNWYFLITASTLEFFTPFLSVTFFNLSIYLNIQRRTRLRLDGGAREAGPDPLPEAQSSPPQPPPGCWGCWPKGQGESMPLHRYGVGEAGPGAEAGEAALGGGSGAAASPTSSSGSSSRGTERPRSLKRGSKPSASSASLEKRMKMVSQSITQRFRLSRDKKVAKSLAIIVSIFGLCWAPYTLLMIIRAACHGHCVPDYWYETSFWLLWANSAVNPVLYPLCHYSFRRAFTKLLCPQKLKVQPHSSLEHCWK

concentration at which histamine H1 -antagonist activity is demonstrated (histamine H1 -receptor [1]) | concentration at which histamine H2 -agonist activity is demonstrated (histamine H2 -receptor [3]) | Compound | pEC50 (histamine H3 -receptor) | concentration at which histamine H1 -agonist activity is demonstrated (histamine H1 -receptor [2]) | Kb (histamine H2 -receptor [4]) [µM]
> 10^-5 M | > 10^-5 M | N=C(N)CCCc1c[nH]cn1 [X = CH2, 4-(4(5)-imidazolyl)butyramidine] | 8.96 | > 10^-5 M | ~251
– | – | N=C(N)SCCc1c[nH]cn1 [X = S, S-[2-(4(5)-imidazolyl)ethyl]isothiourea] | 8.34 | 10^-4 to 10^-3 M | 79.4
